Measured values taken from patent publication US7468392B1, “Anti-fatigue cyclohexenone compounds from antrodia camphorata” (Golden Biotechnology Corporation, priority 2007, dated 2008).
“Also recorded” adds a separate entry of the source.

What was measured:
Assay type in all cases: in vivo, human
healthy male volunteers [1] = experiment: Free fatty acid levels before/after exhaustive exercise at 80% VO2max; conditions: for levels of free fatty acid: plasma, Mean, n = 15; for effect of supplementation after exercise on metabolism of free fatty acid: exhaustive exercise at 80% VO2max, versus placebo
Procedure: (§1) The present invention is based on supplementing cyclohexenone of Antrodia camphorata or placebo with no cyclohexenone of Antrodia camphorata to the subjects. The subjects were tested for the anti-fatigue function after supplementing cyclohexenone of Antrodia camphorata by measuring the amounts of fatigue indexes such as CPK, lactic acid, glucose, ammonia and free fatty acid before and after exhaustive exercise load at 80% VO2max.
(§2) Subjects were randomized to receive either cyclohexenone of Antrodia camphorata or placebo. Placebo contained substances such as cornstarch but no cyclohexenone of Antrodia camphorata. A double-blind, cross-over method was performed in this study where neither the evaluator nor the subject knew the content of the test substances. Based on rules of order balance, each subject have to receive the following tests: relaxing and receiving placebo (PR), exercising and receiving placebo (PE), relaxing and receiving cyclohexenone of Antrodia camphorata (DR), and exercising and receiving cyclohexenone of Antrodia camphorata (DE). Each test was carried out for one week, and took one week off before the next test until all 4 tests were performed in each subject. The exercise was performed on a treadmill with the load intensity at the measured 80% VO2max (7.61±1.87) until exhausted. Subjects received cyclohexenone of Antrodia camphorata or placebo after exercise in the amount of 0.2 g/kg body weight per day. […] Blood was collected in anticoagulant (such as EDTA) containing collection tubes, and was centrifuged at 3000 g. for 10 min to collect the plasma. The fatigue indexes such as CPK, lactic acid, glucose, ammonia and free fatty acid were analyzed accordingly. The physiological and biochemical changes before and after exercise with different supplements were compared and shown as values of mean and standard error (Mean±SEM). […] The details for the biochemical analysis and results are described below:
The measurement of free fatty acid level was performed based on enzyme function and spectrophotometric theory. Acyl CoA synthetase and acyl CoA oxidase were added into a defined amount of plasma for reaction. A purple product was formed through activities of peroxidase. The reactions are shown below:
The absorbance at 550 nm was measured to obtain the concentration of free fatty acid.

healthy male volunteers [2] = experiment: Anti-fatigue test for cyclohexenone of Antrodia camphorata (fatigue indexes overall); conditions: after exhaustive exercising at 80% VO2max, indexes CPK, lactic acid, glucose, ammonia, free fatty acid
Procedure: as §1
Subjects were randomized to receive either cyclohexenone of Antrodia camphorata or placebo. Placebo contained substances such as cornstarch but no cyclohexenone of Antrodia camphorata. A double-blind, cross-over method was performed in this study where neither the evaluator nor the subject knew the content of the test substances. Based on rules of order balance, each subject have to receive the following tests: relaxing and receiving placebo (PR), exercising and receiving placebo (PE), relaxing and receiving cyclohexenone of Antrodia camphorata (DR), and exercising and receiving cyclohexenone of Antrodia camphorata (DE). […] The exercise was performed on a treadmill with the load intensity at the measured 80% VO2max (7.61±1.87) until exhausted. […] The fatigue indexes such as CPK, lactic acid, glucose, ammonia and free fatty acid were analyzed accordingly. […]

healthy male volunteers [3] = experiment: Creatine phosphate kinase (CPK) activity in plasma before/after exhaustive exercise at 80% VO2max; conditions: for creatine phosphate kinase levels: plasma, Mean, n = 15
Procedure: as §1, §2
The measurement of creatine phosphate kinase was performed with an automated blood analyzer Johnson & Johnson DT-60II based on enzyme function and spectrophotometric theory. Creatine phosphate […] was added into a defined amount of plasma to react, followed by addition of 4-aminoantipyrine and 1,7-dihydroxynaphthalene. A […] product was formed through peroxidase function. The absorbance at 680 nm was measured to obtain the concentration of creatine kinase.

healthy male volunteers [4] = experiment: Ammonia levels in blood before/after exhaustive exercise at 80% VO2max; conditions: for blood ammonia levels: Relax (DR), plasma, Mean, n = 15
Procedure: as §1, §2
The measurement of blood ammonia was performed with an automated blood analyzer Johnson & Johnson DT-60II based on the spectrophotometric method. Bromphenol blue was added into a defined amount of plasma to generate blue products. The reaction is shown below:
The absorbance at 605 nm was measured to obtain the concentration of blood ammonia.

[5] = Relax (DR), Post-exercise 0.5 h
[6] = Relax (DR), Post-exercise 120 h
[7] = Relax (DR), Post-exercise 168 h
[8] = exercise (DE), Post-exercise 0 h
[9] = exercise (DE), Post-exercise 0.5 h
[10] = exercise (DE), Post-exercise 1 h
[11] = exercise (DE), Post-exercise 2 h
[12] = exercise (DE), Post-exercise 24 h
[13] = exercise (DE), Post-exercise 48 h
[14] = exercise (DE), Post-exercise 72 h
[15] = exercise (DE), Post-exercise 120 h
[16] = exercise (DE), Post-exercise 168 h
[17] = exercise (DE), Prior to exercise

Q: `COC1=C(OC)C(O)C(C/C=C(\C)CC/C=C(\C)CCC=C(C)C)C(C)C1=O` (centres unmarked) [cyclohexenone, 4-hydroxy-2,3-dimethoxy-6-methyl-5(3,7,11-trimethyl-dodeca-2,6,10-trienyl)-cyclohex-2-enone] was tested. Which levels of free fatty acid (healthy male volunteers [1]; Relax (DR), Post-exercise 0 h) did it give?
A: 0.33 mM

Q: What about the levels of free fatty acid (healthy male volunteers [1]; [5]) of the same molecule?
A: 0.34 mM

Q: What about the levels of free fatty acid (healthy male volunteers [1]; Relax (DR), Post-exercise 1 h) of the same molecule?
A: 0.3 mM

Q: And the levels of free fatty acid (healthy male volunteers [1]; Relax (DR), Post-exercise 2 h)?
A: 0.23 mM

Q: And the levels of free fatty acid (healthy male volunteers [1]; Relax (DR), Post-exercise 24 h)?
A: 0.28 mM

Q: What about the levels of free fatty acid (healthy male volunteers [1]; Relax (DR), Post-exercise 48 h) of the same molecule?
A: 0.29 mM

Q: And the levels of free fatty acid (healthy male volunteers [1]; Relax (DR), Post-exercise 72 h)?
A: 0.31 mM

Q: And the levels of free fatty acid (healthy male volunteers [1]; [6])?
A: 0.48 mM

Q: And the levels of free fatty acid (healthy male volunteers [1]; [7])?
A: 0.28 mM

Q: And the levels of free fatty acid (healthy male volunteers [1]; Relax (DR), Prior to exercise)?
A: 0.38 mM

Q: And the levels of free fatty acid (healthy male volunteers [1]; [8])?
A: 0.91 mM

Q: And the levels of free fatty acid (healthy male volunteers [1]; [9])?
A: 0.6 mM

Q: What about the levels of free fatty acid (healthy male volunteers [1]; [10]) of the same molecule?
A: 0.61 mM

Q: And the levels of free fatty acid (healthy male volunteers [1]; [11])?
A: 0.59 mM

Q: What about the levels of free fatty acid (healthy male volunteers [1]; [12]) of the same molecule?
A: 0.41 mM

Q: What about the levels of free fatty acid (healthy male volunteers [1]; [13]) of the same molecule?
A: 0.28 mM

Q: And the levels of free fatty acid (healthy male volunteers [1]; [14])?
A: 0.44 mM

Q: And the levels of free fatty acid (healthy male volunteers [1]; [15])?
A: 0.3 mM

Q: What about the levels of free fatty acid (healthy male volunteers [1]; [16]) of the same molecule?
A: 0.32 mM

Q: What about the levels of free fatty acid (healthy male volunteers [1]; [17]) of the same molecule?
A: 0.34 mM

Q: And the “effect of supplementation after exercise on metabolism of free fatty acid” value (healthy male volunteers [1]; listed as cyclohexenone from Antrodia camphorata)?
A: did not affect the metabolism of free fatty acid

Q: What about the “effect of supplementation after exercise on metabolism of free fatty acid” value (healthy male volunteers [1]; listed as cyclohexenone of Antrodia camphorata) of the same molecule?
A: no significant difference

Q: And the “anti-fatigue function (physiological fatigue after exercise)” value (healthy male volunteers [2]; listed as 4-hydroxy-2,3-dimethoxy-6-methyl-5(3,7,11-trimethyl-dodecca-2,6,10-trienyl)-cycl)?
A: can be used to delay physiological fatigue after exercise

Q: What about the “anti-fatigue function (physiological fatigue after exercise)” value (healthy male volunteers [2]; listed as cyclohexenone from Antrodia camphorea) of the same molecule?
A: delays physiological fatigue

Q: What about the “creatine phosphate kinase levels” value (healthy male volunteers [3]; Relax (DR), Post-exercise 0 h) of the same molecule?
A: 150.20 U/L

Q: And the “creatine phosphate kinase levels” value (healthy male volunteers [3]; [5])?
A: 166.53 U/L

Q: What about the “creatine phosphate kinase levels” value (healthy male volunteers [3]; Relax (DR), Post-exercise 1 h) of the same molecule?
A: 167.40 U/L

Q: And the “creatine phosphate kinase levels” value (healthy male volunteers [3]; Relax (DR), Post-exercise 2 h)?
A: 146.33 U/L

Q: And the “creatine phosphate kinase levels” value (healthy male volunteers [3]; Relax (DR), Post-exercise 24 h)?
A: 158.47 U/L

Q: What about the “creatine phosphate kinase levels” value (healthy male volunteers [3]; Relax (DR), Post-exercise 48 h) of the same molecule?
A: 133.87 U/L

Q: And the “creatine phosphate kinase levels” value (healthy male volunteers [3]; Relax (DR), Post-exercise 72 h)?
A: 165.73 U/L

Q: What about the “creatine phosphate kinase levels” value (healthy male volunteers [3]; [6]) of the same molecule?
A: 243.00 U/L

Q: And the “creatine phosphate kinase levels” value (healthy male volunteers [3]; [7])?
A: 183.27 U/L

Q: And the “creatine phosphate kinase levels” value (healthy male volunteers [3]; Relax (DR), Prior to exercise)?
A: 167.27 U/L

Q: What about the “creatine phosphate kinase levels” value (healthy male volunteers [3]; [8]) of the same molecule?
A: 259.57 U/L

Q: And the “creatine phosphate kinase levels” value (healthy male volunteers [3]; [9])?
A: 221.86 U/L

Q: And the “creatine phosphate kinase levels” value (healthy male volunteers [3]; [10])?
A: 232.93 U/L

Q: What about the “creatine phosphate kinase levels” value (healthy male volunteers [3]; [11]) of the same molecule?
A: 208.07 U/L

Q: What about the “creatine phosphate kinase levels” value (healthy male volunteers [3]; [12]) of the same molecule?
A: 332.50 U/L

Q: And the “creatine phosphate kinase levels” value (healthy male volunteers [3]; [13])?
A: 244.00 U/L

Q: What about the “creatine phosphate kinase levels” value (healthy male volunteers [3]; [14]) of the same molecule?
A: 193.86 U/L

Q: What about the “creatine phosphate kinase levels” value (healthy male volunteers [3]; [15]) of the same molecule?
A: 193.86 U/L

Q: What about the “creatine phosphate kinase levels” value (healthy male volunteers [3]; [16]) of the same molecule?
A: 204.83 U/L

Q: And the “creatine phosphate kinase levels” value (healthy male volunteers [3]; [17])?
A: 226.64 U/L

Q: And the “effect of supplementation after exercise on creatine phosphate kinase levels” value (healthy male volunteers [3]; exhaustive exercise at 80% VO2max, 0.2 g/kg body weight per day, versus placebo, listed as cyclohexenone from Antrodia camphorata)?
A: effectively decreases the muscular injury marker of creatine phosphate kinase levels; also recorded: significant effect (p<0.05) in metabolism of creatine phosphate kinase

Q: What about the “ammonia levels in DE group versus those before exercise” value (healthy male volunteers [4]; 24 h post exercise) of the same molecule?
A: significantly lower

Q: What about the blood ammonia levels (healthy male volunteers [4]; Post-exercise 0 h) of the same molecule?
A: 55.60 µg/dL

Q: What about the blood ammonia levels (healthy male volunteers [4]; Post-exercise 0.5 h) of the same molecule?
A: 52.53 µg/dL

Q: And the blood ammonia levels (healthy male volunteers [4]; Post-exercise 1 h)?
A: 57.47 µg/dL

Q: And the blood ammonia levels (healthy male volunteers [4]; Post-exercise 2 h)?
A: 54.07 µg/dL

Q: What about the blood ammonia levels (healthy male volunteers [4]; Post-exercise 24 h) of the same molecule?
A: 30.33 µg/dL

Q: And the blood ammonia levels (healthy male volunteers [4]; Post-exercise 48 h)?
A: 26.86 µg/dL

Q: What about the blood ammonia levels (healthy male volunteers [4]; Post-exercise 72 h) of the same molecule?
A: 25.20 µg/dL

Q: And the blood ammonia levels (healthy male volunteers [4]; Post-exercise 120 h)?
A: 27.80 µg/dL

Q: What about the blood ammonia levels (healthy male volunteers [4]; Post-exercise 168 h) of the same molecule?
A: 28.57 µg/dL

Q: And the blood ammonia levels (healthy male volunteers [4]; Prior to exercise)?
A: 39.20 µg/dL
